Source: US5965527A, “Cyclosporin compounds, their preparation and the pharmaceutical compositions which contain them” (Rhone-Poulenc Rorer, S.A., priority 1996, dated 1999)

System: retroviruses
Details: combined with AZT, ddl, Saquinavir and/or ribavirin

[(R)-2-(N,N-Dimethylamino)ethylthio-Sar]^3 -cyclosporin A [Example 2]
effect in combination: particularly advantageous effect
